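48-hour exposure; five concentrations; linearly interpolated endpoints. TGI is the concentration that stops growth completely.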
Tests used:
Assay in all cases: NCI tumour cell line growth inhibition, 48 h
786-0 renal = tested on: 786-0 renal
A498 renal = tested on: A498 renal
A549 NSCLC = tested on: A549 NSCLC
ACHN renal = tested on: ACHN renal
CAKI-1 renal = tested on: CAKI-1 renal
CCRF-CEM leukemia = tested on: CCRF-CEM leukemia
COLO 205 colon = tested on: COLO 205 colon
DLD-1 colon = tested on: DLD-1 colon
DMS 114 small cell lung = tested on: DMS 114 small cell lung
DMS 273 small cell lung = tested on: DMS 273 small cell lung
EKVX NSCLC = tested on: EKVX NSCLC
HCC-2998 colon = tested on: HCC-2998 colon
HCT-116 colon = tested on: HCT-116 colon
HCT-15 colon = tested on: HCT-15 colon
HOP-18 NSCLC = tested on: HOP-18 NSCLC
HOP-62 NSCLC = tested on: HOP-62 NSCLC
HOP-92 NSCLC = tested on: HOP-92 NSCLC
HT29 colon = tested on: HT29 colon
IGROV1 ovarian = tested on: IGROV1 ovarian
K-562 leukemia = tested on: K-562 leukemia
KM12 colon = tested on: KM12 colon
KM20L2 colon = tested on: KM20L2 colon
LOX IMVI melanoma = tested on: LOX IMVI melanoma
LXFL 529 NSCLC = tested on: LXFL 529 NSCLC
M14 melanoma = tested on: M14 melanoma
M19-MEL melanoma = tested on: M19-MEL melanoma
MALME-3M melanoma = tested on: MALME-3M melanoma
MOLT-4 leukemia = tested on: MOLT-4 leukemia
NCI-H226 lung = tested on: NCI-H226 lung
NCI-H23 lung = tested on: NCI-H23 lung
NCI-H460 lung = tested on: NCI-H460 lung
NCI-H522 lung = tested on: NCI-H522 lung
OVCAR-3 ovarian = tested on: OVCAR-3 ovarian
OVCAR-4 ovarian = tested on: OVCAR-4 ovarian
OVCAR-5 ovarian = tested on: OVCAR-5 ovarian
OVCAR-8 ovarian = tested on: OVCAR-8 ovarian
RPMI-8226 leukemia = tested on: RPMI-8226 leukemia
RXF 393 renal = tested on: RXF 393 renal
RXF-631 renal = tested on: RXF-631 renal
SF-268 CNS = tested on: SF-268 CNS
SF-295 CNS = tested on: SF-295 CNS
SF-539 CNS = tested on: SF-539 CNS
SK-MEL-2 melanoma = tested on: SK-MEL-2 melanoma
SK-MEL-28 melanoma = tested on: SK-MEL-28 melanoma
SK-MEL-5 melanoma = tested on: SK-MEL-5 melanoma
SK-OV-3 ovarian = tested on: SK-OV-3 ovarian
SN12C renal = tested on: SN12C renal
SNB-19 CNS = tested on: SNB-19 CNS
SNB-75 CNS = tested on: SNB-75 CNS
SNB-78 CNS = tested on: SNB-78 CNS
SR leukemia = tested on: SR leukemia
SW-620 colon = tested on: SW-620 colon
TK-10 renal = tested on: TK-10 renal
U251 CNS = tested on: U251 CNS
UACC-257 melanoma = tested on: UACC-257 melanoma
UACC-62 melanoma = tested on: UACC-62 melanoma
UO-31 renal = tested on: UO-31 renal

Measured: TGI

Cc1ccc(NC(=O)CCCC(=O)CC(=O)c2ccc(Br)cc2)cc1
> 100 µM: all assays above
